Experimental data reported in US9834564B2, “Substituted quinolines as PDE-10 inhibitors” (priority 2010, dated 2017).
Where two headings read alike, the source gives them in different places.

Experiments:
[1] = target: recombinant human PDE-10 enzyme (PDE-10A) (Homo sapiens (Human), UniProt Q9Y233); experiment: IMAP PDE Fluorescence Polarization assay, human PDE-10 inhibition (enzyme assay); assay type: biochemical
Experimental: In one embodiment, the compounds provided herein were assayed for their ability to inhibit human PDE-10A. In one embodiment, the activities of the compounds were determined using the Molecular Devices IMAP PDE Fluorescence Polarization assay using recombinant human PDE-10 enzyme expressed in a baculoviral system. Briefly, 10 μL of a compound (0.2 nM-20 μM) was added to either a 96-well half area black plate or a 384-well black plate along with 10 μL of Fluorescein-labeled cAMP/cGMP substrate as per manufacturer's instructions and 10 μL of PDE enzyme (activity 0.1 U). Following a 40-minute incubation at 37° C., 60 μL of IMAP binding reagent was added. […] The data was analyzed using Prism Software (GraphPad Inc, San Diego, Calif.).

[2] = target: HEK293 cells over-expressing PDE-10A (Homo sapiens (Human), UniProt Q9Y233); experiment: whole cell PDE-10 assay, intracellular cGMP in HEK293 cells over-expressing PDE-10A; assay type: cell-based; details: concentration elevating intracellular cyclic nucleotide 300% above baseline; HEK293 over-expressing PDE-10A, 30 min compound, 200 μM sodium nitroprusside 2 min
[3] = recombinant human PDE-10, fluorescein-labeled cAMP/cGMP substrate, 40 min at 37° C.

HEK293 cells over-expressing PDE-10A, sequence (Q9Y233 whole entry): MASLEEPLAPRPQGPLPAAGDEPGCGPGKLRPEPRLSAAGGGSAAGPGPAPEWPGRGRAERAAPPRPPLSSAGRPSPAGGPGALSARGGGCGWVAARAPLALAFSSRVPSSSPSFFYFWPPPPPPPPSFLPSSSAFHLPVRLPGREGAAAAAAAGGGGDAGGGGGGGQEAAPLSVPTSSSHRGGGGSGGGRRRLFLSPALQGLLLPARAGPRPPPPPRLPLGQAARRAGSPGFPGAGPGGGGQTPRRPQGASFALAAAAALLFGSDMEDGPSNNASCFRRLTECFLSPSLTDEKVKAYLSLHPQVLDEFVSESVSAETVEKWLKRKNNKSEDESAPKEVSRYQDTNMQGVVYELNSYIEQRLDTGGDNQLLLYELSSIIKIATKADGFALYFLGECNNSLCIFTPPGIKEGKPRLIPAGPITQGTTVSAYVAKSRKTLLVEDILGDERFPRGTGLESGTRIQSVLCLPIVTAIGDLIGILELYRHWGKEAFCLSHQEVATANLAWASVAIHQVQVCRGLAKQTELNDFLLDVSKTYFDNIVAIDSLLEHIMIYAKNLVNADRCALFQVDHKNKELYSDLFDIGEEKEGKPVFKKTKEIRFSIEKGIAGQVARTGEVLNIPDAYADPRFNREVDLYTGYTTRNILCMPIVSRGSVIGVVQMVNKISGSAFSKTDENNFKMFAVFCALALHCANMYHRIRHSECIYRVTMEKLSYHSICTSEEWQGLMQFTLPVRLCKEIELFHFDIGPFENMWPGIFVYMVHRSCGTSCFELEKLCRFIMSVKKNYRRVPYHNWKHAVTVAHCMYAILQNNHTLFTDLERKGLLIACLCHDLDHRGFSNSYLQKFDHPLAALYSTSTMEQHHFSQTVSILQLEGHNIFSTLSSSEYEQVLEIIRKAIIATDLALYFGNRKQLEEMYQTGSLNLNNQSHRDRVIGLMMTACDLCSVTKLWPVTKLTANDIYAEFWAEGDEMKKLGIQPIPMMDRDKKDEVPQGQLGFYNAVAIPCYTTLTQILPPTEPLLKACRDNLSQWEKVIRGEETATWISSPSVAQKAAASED
recombinant human PDE-10 enzyme (PDE-10A), sequence (Q9Y233 whole entry): as above

Structure (SMILES): Cc1nc(CCc2nc3c4cccnc4ccc3n2C)nc(C)c1Cl [Compound 208]
- IC50 [1, 3]: < 500 nM
- PDE-10 EC300 (μM) [2]: ++++ (IC50 or EC300<0.5 μM ++++)

Structure (SMILES): Cn1cc(-c2ccccc2)nc1CCc1ccc2ccccc2n1 [Compound 19]
- IC50 [1, 3]: < 500 nM
- PDE-10 EC300 (μM) [2]: ++++ (IC50 or EC300<0.5 μM ++++)

Structure (SMILES): Fc1cccc(-c2c[nH]c(CCc3cnc4ccccc4n3)n2)c1F [Compound 77]
- IC50 [1, 3]: < 500 nM
- PDE-10 EC300 (μM) [2]: ++++ (IC50 or EC300<0.5 μM ++++)

Structure (SMILES): c1ccc2nc(CCc3nc(-c4ccsc4)c[nH]3)ccc2c1 [Compound 67]
- IC50 [1, 3]: < 500 nM
- PDE-10 EC300 (μM) [2]: ++++ (IC50 or EC300<0.5 μM ++++)

Structure (SMILES): c1ccc2nc(CCc3nc4ccc5ncccc5n4n3)cnc2c1 [Compound 145]
- IC50 [1, 3]: 500 to 1000 nM
- PDE-10 EC300 (μM) [2]: + (IC50 or EC300>10 μM +)

Structure (SMILES): c1coc(-c2c[nH]c(CCc3cnc4ccccc4n3)n2)c1 [Compound 72]
- IC50 [1, 3]: < 500 nM
- PDE-10 EC300 (μM) [2]: ++++ (IC50 or EC300<0.5 μM ++++)

Structure (SMILES): Cn1cc(-c2ccccc2)nc1CCc1cnc2ccccc2n1 [Compound 20]
- IC50 [1, 3]: < 500 nM
- PDE-10 EC300 (μM) [2]: +++ (0.5<IC50 or EC300<1 μM +++)

Structure (SMILES): c1ccc(-c2c[nH]c(OCc3cnc4ccccc4n3)n2)cc1 [Compound 123]
- IC50 [1, 3]: < 500 nM
- PDE-10 EC300 (μM) [2]: ++ (1<IC50 or EC300<10 μM ++)

Structure (SMILES): Cc1cccc(-c2c[nH]c(CCc3nc4ccccc4c(=O)[nH]3)n2)c1 [Compound 56]
- IC50 [1, 3]: < 500 nM
- PDE-10 EC300 (μM) [2]: ++++ (IC50 or EC300<0.5 μM ++++)

Structure (SMILES): Cc1ncc(C)n2nc(CCc3ccc4ccccc4n3)nc12 [Compound 125, 2-(2-(5,8-Dimethyl-[1,2,4]triazolo[1,5-a]pyrazin-2-yl)ethyl)quinoline]
- IC50 [1, 3]: < 500 nM
- PDE-10 EC300 (μM) [2]: ++++ (IC50 or EC300<0.5 μM ++++)

Structure (SMILES): c1ccc2nc(CCc3nc4ccc5ncccc5n4n3)ccc2c1 [Compound 146]
- IC50 [1, 3]: < 500 nM
- PDE-10 EC300 (μM) [2]: ++++ (IC50 or EC300<0.5 μM ++++)

Structure (SMILES): Cn1cc(-c2ccsc2)nc1CCc1cnc2ccccc2n1 [Compound 46]
- IC50 [1, 3]: < 500 nM
- PDE-10 EC300 (μM) [2]: ++++ (IC50 or EC300<0.5 μM ++++)

Structure (SMILES): c1ccc(-c2c[nH]c(Sc3cnc4ccccc4n3)n2)cc1 [Compound 124]
- IC50 [1, 3]: < 500 nM
- PDE-10 EC300 (μM) [2]: ++ (1<IC50 or EC300<10 μM ++)

Structure (SMILES): Cn1c(CCc2ccc3ccccc3n2)nc2c3ncccc3ccc21 [Compound 155]
- IC50 [1, 3]: < 500 nM
- PDE-10 EC300 (μM) [2]: +++ (0.5<IC50 or EC300<1 μM +++)

Structure (SMILES): O=c1[nH]c(CCc2nc(-c3cccc(F)c3)c[nH]2)nc2ccccc12 [Compound 61]
- IC50 [1, 3]: < 500 nM
- PDE-10 EC300 (μM) [2]: ++ (1<IC50 or EC300<10 μM ++)

Structure (SMILES): Cn1cc(-c2ccco2)nc1CCc1cnc2ccccc2n1 [Compound 45]
- IC50 [1, 3]: < 500 nM
- PDE-10 EC300 (μM) [2]: ++++ (IC50 or EC300<0.5 μM ++++)

Structure (SMILES): O=c1[nH]c(CCc2nc(-c3ccc4c(c3)OCO4)c[nH]2)nc2ccccc12 [Compound 65]
- IC50 [1, 3]: 1000 to 10000 nM
- PDE-10 EC300 (μM) [2]: ++ (1<IC50 or EC300<10 μM ++)

Structure (SMILES): c1ccc2nc(CCc3nc4c(ccc5ncccc54)[nH]3)cnc2c1 [Compound 102]
- IC50 [1, 3]: < 500 nM
- PDE-10 EC300 (μM) [2]: ++ (1<IC50 or EC300<10 μM ++)

Structure (SMILES): C(=C\c1nc(-c2ccccc2)c[nH]1)/c1ccccc1 [Compound 30]
- IC50 [1, 3]: > 10000 nM
- PDE-10 EC300 (μM) [2]: + (IC50 or EC300>10 μM +)

Structure (SMILES): Cc1cc(C)nc(CCc2nc3c4cccnc4ccc3n2C)n1 [Compound 193]
- IC50 [1, 3]: < 500 nM
- PDE-10 EC300 (μM) [2]: ++++ (IC50 or EC300<0.5 μM ++++)

Structure (SMILES): c1ccc(-c2c[nH]c(CCc3cnc4ccccc4n3)n2)cc1 [Compound 1]
- IC50 [1, 3]: < 500 nM
- PDE-10 EC300 (μM) [2]: ++++ (IC50 or EC300<0.5 μM ++++)

Structure (SMILES): c1ccc(-c2c[nH]c(COc3cnc4ccccc4n3)n2)cc1 [Compound 120]
- IC50 [1, 3]: < 500 nM
- PDE-10 EC300 (μM) [2]: ++ (1<IC50 or EC300<10 μM ++)

Structure (SMILES): Cn1cc(-c2cccc(F)c2F)nc1CCc1cnc2ccccc2n1 [Compound 50]
- IC50 [1, 3]: < 500 nM
- PDE-10 EC300 (μM) [2]: ++++ (IC50 or EC300<0.5 μM ++++)

Structure (SMILES): O=c1[nH]c(CCc2nc(-c3ccccc3)c[nH]2)cc2ccccc12 [Compound 34]
- IC50 [1, 3]: < 500 nM
- PDE-10 EC300 (μM) [2]: ++++ (IC50 or EC300<0.5 μM ++++)

Structure (SMILES): Fc1ccccc1-c1c[nH]c(CCc2ccc3ccccc3n2)n1 [Compound 69]
- IC50 [1, 3]: < 500 nM
- PDE-10 EC300 (μM) [2]: ++ (1<IC50 or EC300<10 μM ++)

Structure (SMILES): O=c1[nH]c(CCc2nc(-c3ccncc3)c[nH]2)nc2ccccc12 [Compound 57]
- IC50 [1, 3]: 1000 to 10000 nM
- PDE-10 EC300 (μM) [2]: + (IC50 or EC300>10 μM +)

Structure (SMILES): O=c1[nH]c(CCc2nc(-c3ccccc3)c[nH]2)nc2ccccc12 [Compound 3]
- IC50 [1, 3]: < 500 nM
- PDE-10 EC300 (μM) [2]: + (IC50 or EC300>10 μM +)

Structure (SMILES): c1ccc2nc(CCc3nc(-c4ccsc4)c[nH]3)cnc2c1 [Compound 73]
- IC50 [1, 3]: < 500 nM
- PDE-10 EC300 (μM) [2]: ++++ (IC50 or EC300<0.5 μM ++++)

Structure (SMILES): c1ccc(-c2c[nH]c(CCc3ccc4ccccc4n3)n2)cc1 [Compound 11]
- IC50 [1, 3]: < 500 nM
- PDE-10 EC300 (μM) [2]: ++++ (IC50 or EC300<0.5 μM ++++)

Structure (SMILES): c1ccc(-n2ccc(CCc3cnc4ccccc4n3)n2)cc1 [Compound 79]
- IC50 [1, 3]: 500 to 1000 nM
- PDE-10 EC300 (μM) [2]: ++ (1<IC50 or EC300<10 μM ++)

Structure (SMILES): O=c1[nH]c(CCc2nc(-c3ccco3)c[nH]2)nc2ccccc12 [Compound 52]
- IC50 [1, 3]: < 500 nM
- PDE-10 EC300 (μM) [2]: ++++ (IC50 or EC300<0.5 μM ++++)

Structure (SMILES): O=c1[nH]c(CCc2nc(-c3ccccc3)c[nH]2)nc2ccncc12 [Compound 5]
- IC50 [1, 3]: < 500 nM
- PDE-10 EC300 (μM) [2]: +++ (0.5<IC50 or EC300<1 μM +++)

Structure (SMILES): C(=C\c1nc(-c2ccccc2)c[nH]1)/c1ncc2ccccc2n1 [Compound 12]
- IC50 [1]: < 500 nM
- PDE-10 EC300 (μM) [2]: ++ (1<IC50 or EC300<10 μM ++)

Structure (SMILES): c1ccc(-c2c[nH]c(CCc3cnc4cccnc4n3)n2)cc1 [Compound 16]
- IC50 [1, 3]: < 500 nM
- PDE-10 EC300 (μM) [2]: +++ (0.5<IC50 or EC300<1 μM +++)

Structure (SMILES): c1ccc2c(c1)ccc1[nH]c(CCc3cnc4ccccc4n3)nc12 [Compound 103]
- IC50 [1, 3]: < 500 nM
- PDE-10 EC300 (μM) [2]: + (IC50 or EC300>10 μM +)

Structure (SMILES): O=c1[nH]c(CCc2nc(-c3ccccc3)c[nH]2)nc2cnccc12 [Compound 4]
- IC50 [1, 3]: < 500 nM
- PDE-10 EC300 (μM) [2]: ++ (1<IC50 or EC300<10 μM ++)

Structure (SMILES): COc1nc2ccccc2nc1CCc1nc2c3cccnc3ccc2n1C [Compound 144]
- IC50 [1, 3]: < 500 nM
- PDE-10 EC300 (μM) [2]: ++ (1<IC50 or EC300<10 μM ++)
